Patent publication US12121523B2, “Method of treatment of attention deficit/hyperactivity disorder (ADHD)” (Supernus Pharmaceuticals, Inc., priority 2008, dated 2024)

Assays:
5-HT1B (h) = 5-HT1B (h) (Homo sapiens, UniProt P28222)
Procedure: The apparent dissociation constants for antagonists Kb were calculated using the modified Cheng Prusoff equation.

5-HT4e (h) = 5-HT4e (h) (Homo sapiens, UniProt Q13639); conditions: 10 μM viloxazine; [3H]GR 113808 0.3 nM; 60 min/37° C.
From the text: (§1) Briefly, recombinant 5-HT1B OR 5-HT7 receptors were expressed in a CHO cell line. The receptors were then saturated with a tritiated receptor-specific ligand at concentrations known to be saturating.

5-HT1D = 5-HT1D (Rattus norvegicus, UniProt P28565); conditions: 10 μM viloxazine; [3H]serotonin 1 nM; 60 min/22° C.
Chain of 5-HT1D (P28565 whole entry): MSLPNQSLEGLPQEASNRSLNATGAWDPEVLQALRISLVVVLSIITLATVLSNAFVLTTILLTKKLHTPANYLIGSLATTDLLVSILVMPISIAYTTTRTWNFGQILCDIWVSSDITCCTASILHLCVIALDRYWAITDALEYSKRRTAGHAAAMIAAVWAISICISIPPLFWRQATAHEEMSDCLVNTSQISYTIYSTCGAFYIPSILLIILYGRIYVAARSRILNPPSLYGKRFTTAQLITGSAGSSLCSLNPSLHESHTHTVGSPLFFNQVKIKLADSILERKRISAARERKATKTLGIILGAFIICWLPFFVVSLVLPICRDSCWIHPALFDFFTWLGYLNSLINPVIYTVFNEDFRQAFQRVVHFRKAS
From the text: as §1

5-HT5A (h) = 5-HT5A (h) (Homo sapiens, UniProt P47898); conditions: 10 μM viloxazine; [3H]LSD 1 nM; 60 min/37° C.
Chain of 5-HT5A (h) (P47898 whole entry): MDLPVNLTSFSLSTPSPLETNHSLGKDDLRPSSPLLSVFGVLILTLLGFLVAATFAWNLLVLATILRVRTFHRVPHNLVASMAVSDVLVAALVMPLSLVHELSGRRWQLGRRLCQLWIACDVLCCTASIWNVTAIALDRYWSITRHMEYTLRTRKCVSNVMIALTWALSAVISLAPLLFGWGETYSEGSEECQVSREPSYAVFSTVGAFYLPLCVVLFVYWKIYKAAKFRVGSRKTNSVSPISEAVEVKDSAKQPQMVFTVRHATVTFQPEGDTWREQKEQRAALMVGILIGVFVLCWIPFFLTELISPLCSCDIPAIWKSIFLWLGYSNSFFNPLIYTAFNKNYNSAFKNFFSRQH
From the text: as §1

5-HT3 (h) = 5-HT3 (h) (Homo sapiens, UniProt P46098); conditions: 10 μM viloxazine; [3H]BRL 43694 0.5 nM; 120 min/22° C.
Chain of 5-HT3 (h) (P46098 24-478): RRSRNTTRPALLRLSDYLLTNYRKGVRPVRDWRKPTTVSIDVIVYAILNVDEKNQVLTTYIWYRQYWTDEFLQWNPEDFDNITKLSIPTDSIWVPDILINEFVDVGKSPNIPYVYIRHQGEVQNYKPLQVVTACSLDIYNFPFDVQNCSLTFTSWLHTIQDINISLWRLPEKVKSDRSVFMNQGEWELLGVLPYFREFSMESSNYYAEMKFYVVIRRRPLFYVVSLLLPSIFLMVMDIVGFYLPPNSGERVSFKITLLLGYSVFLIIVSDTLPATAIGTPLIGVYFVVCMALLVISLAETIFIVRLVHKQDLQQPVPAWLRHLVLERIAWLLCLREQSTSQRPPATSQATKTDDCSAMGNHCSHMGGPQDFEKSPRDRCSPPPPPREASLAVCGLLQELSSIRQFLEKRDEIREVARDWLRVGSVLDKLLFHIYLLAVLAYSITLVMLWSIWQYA
From the text: as §1

5-HT6 (h) = 5-HT6 (h) (Homo sapiens, UniProt P50406); conditions: 10 μM viloxazine; [3H]LSD 2 nM; 120 min/37° C.
Chain of 5-HT6 (h) (P50406 whole entry): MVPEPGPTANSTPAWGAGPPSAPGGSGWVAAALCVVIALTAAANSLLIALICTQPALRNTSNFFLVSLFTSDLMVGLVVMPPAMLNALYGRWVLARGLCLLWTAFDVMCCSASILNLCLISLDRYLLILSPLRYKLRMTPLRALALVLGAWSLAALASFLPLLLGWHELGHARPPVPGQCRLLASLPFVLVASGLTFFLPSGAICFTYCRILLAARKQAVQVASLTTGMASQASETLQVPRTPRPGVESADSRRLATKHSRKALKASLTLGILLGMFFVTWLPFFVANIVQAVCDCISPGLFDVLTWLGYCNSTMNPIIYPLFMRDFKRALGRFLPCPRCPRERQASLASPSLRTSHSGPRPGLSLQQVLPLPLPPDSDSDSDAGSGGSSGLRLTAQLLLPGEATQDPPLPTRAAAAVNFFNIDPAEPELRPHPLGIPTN
From the text: as §1

[1] = target: noradrenergic reuptake transporters (Homo sapiens, UniProt P23975); conditions: Tatsumi et al 1997; quantity type not given; cited from earlier work
Chain of noradrenergic reuptake transporters (P23975 whole entry): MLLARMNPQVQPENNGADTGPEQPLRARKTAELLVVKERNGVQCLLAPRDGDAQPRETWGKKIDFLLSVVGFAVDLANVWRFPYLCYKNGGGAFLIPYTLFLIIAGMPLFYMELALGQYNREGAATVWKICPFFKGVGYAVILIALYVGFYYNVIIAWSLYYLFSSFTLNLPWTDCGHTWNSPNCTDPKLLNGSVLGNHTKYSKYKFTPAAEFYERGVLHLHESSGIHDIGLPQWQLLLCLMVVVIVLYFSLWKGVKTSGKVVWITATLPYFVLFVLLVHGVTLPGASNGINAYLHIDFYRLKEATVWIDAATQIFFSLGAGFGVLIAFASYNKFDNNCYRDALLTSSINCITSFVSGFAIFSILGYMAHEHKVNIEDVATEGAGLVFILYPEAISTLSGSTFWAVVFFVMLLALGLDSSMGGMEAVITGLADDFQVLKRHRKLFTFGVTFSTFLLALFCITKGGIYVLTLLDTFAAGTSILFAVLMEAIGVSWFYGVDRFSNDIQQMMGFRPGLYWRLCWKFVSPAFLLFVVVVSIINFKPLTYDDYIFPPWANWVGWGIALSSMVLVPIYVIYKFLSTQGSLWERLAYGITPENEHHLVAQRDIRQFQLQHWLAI

Chain of 5-HT1B (h) (P28222 whole entry): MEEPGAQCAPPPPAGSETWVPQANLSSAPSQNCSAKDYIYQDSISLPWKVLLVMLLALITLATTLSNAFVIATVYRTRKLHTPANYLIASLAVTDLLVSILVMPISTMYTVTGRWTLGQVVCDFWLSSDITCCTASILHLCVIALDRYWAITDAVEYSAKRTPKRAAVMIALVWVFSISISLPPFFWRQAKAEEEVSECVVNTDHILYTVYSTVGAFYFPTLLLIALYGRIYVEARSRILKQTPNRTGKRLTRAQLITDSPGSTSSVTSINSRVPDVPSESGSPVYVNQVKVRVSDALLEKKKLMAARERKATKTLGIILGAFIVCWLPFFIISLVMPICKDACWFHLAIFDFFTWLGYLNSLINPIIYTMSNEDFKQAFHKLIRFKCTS
Chain of 5-HT4e (h) (Q13639 1-378 isoform Q13639-5): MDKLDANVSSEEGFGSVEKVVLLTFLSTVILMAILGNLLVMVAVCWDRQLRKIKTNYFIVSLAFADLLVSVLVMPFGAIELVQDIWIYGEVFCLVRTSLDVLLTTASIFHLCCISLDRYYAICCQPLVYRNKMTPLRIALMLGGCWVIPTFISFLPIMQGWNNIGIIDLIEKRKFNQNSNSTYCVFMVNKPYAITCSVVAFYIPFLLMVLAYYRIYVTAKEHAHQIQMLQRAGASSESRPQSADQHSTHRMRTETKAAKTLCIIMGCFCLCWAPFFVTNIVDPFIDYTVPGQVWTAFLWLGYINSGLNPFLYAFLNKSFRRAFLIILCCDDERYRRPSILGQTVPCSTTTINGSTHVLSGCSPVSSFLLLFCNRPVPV

Viloxazine
antagonist activity (in words) (5-HT1B (h)): specific antagonist activity
% Inhib. (5-HT4e (h)): 16%
% Inhib. (5-HT1D): 18%
% Inhib. (5-HT5A (h)): 15%
% Inhib. (5-HT3 (h)): 18%
% Inhib. (5-HT6 (h)): 6%
inhibition of noradrenergic reuptake transporters [1]: 155 nM
